Literature values, collected in patent publication US8449906B2, “Effervescent compositions comprising phosphonates and methods related thereto” (EffRx Pharmaceuticals, S.A., priority 2002, dated 2013).

In the case of `COc1ccc2[nH]c([S+]([O-])Cc3ncc(C)c(OC)c3C)nc2c1` (stereo not shown) [omeprazole], the pKa is listed as “about 3.9”.
